Reference: patent US12642780B2, “Methods and compositions to treat and prevent viral infections and acute respiratory distress syndrome” (priority 2020, dated 2026)

Columns and labels:
Assay type in all cases: cell-based, mouse
BMDM [1] = assay: Mitochondrial function in BMDM (TMRM, MitoSOX, cellular ATP); settings: for mtROS: metformin treated and ATP-stimulated macrophages, DMNQ 20 μM 16 hrs, MitoParaquat 5 μM 1 hr
BMDM [2] = assay: Cytokine secretion by LPS-stimulated BMDM (ELISA)
Description: Paired antibodies (capture and detection) and standard recombinant mouse IL-1β (R&D Systems), and TNF and IL-6 (eBioscience) were used to determine mouse cytokine concentrations according to manufacturer's instructions.

NLRP3 inflammasome = NLRP3 inflammasome activation in LPS-primed BMDM; settings: for restoration of Casp1 activation and IL-1β secretion: metformin treated and ATP-stimulated macrophages, DMNQ 20 μM 16 hrs, MitoParaquat 5 μM 1 hr
mtDNA = mtDNA synthesis and cytosolic Ox-mtDNA in BMDM; settings: for restoration of cytoplasmic Ox-mtDNA or mtDNA synthesis: metformin treated macrophages, DMNQ 20 μM 16 hrs, MitoParaquat 5 μM 1 hr
Procedure: To image mtDNA synthesis, BMDM were stimulated with LPS ([…]) for 4 hrs in the presence of 10 μM EdU. Cells were then washed twice with sterile PBS and fixed in 4% PFA for 15 min followed by permeabilization with 0.02% Triton X-100 for 10 min. EdU staining was performed using a Click-iT EdU Microplate Assay Kit (Thermo Fisher Scientific). In brief, BMDMs were postfixed in EdU fixative for 5 min, and equal volumes of the EdU reaction cocktail, which was prepared immediately before use, were added to each chamber and left overnight. Primary antibody against the mitochondrial marker Atp5b was included in the EdU reaction cocktail. The next day, the BMDM were washed three times with PBS followed by incubation with secondary Alexa antibodies from Life Technologies or Jackson Immuno Research Laboratories. DAPI was used for nuclear counterstaining.
Total DNA was isolated using Allprep DNA/RNA Mini Kit (catalogue 80204, Qiagen) according to manufacturer's instructions. mtDNA was quantified by qPCR using primers specific for the mitochondrial D-loop region, cytochrome c oxidase (COX) or a specific region of mtDNA that is not inserted into nuclear DNA (non-NUMT) (Zhong et al., 2018). Nuclear DNA encoding Teri, 18S ribosomal RNA and B2m was used for normalization.
Cellular fractionation was performed using Mitochondrial Isolation kit (89874, ThermoScientific) according to manufacturer's instructions. Cytosolic mtDNA was analyzed as described (Nakahira et al., 2011). For the measurement of Ox-mtDNA, mtDNA was first purified using Allprep DNA/RNA mini kit (Qiagen) from the cytosolic fraction of BMDM as described above. The 8-OH-dG content of the mtDNA was then quantified using an 8-OHdG quantification kit (ab201734), per manufacturer's instructions.

BMDM [3] = assay: Q-PCR quantitation of cytokine mRNAs in LPS-stimulated BMDM; parameters: Il6 mRNA induction: dose or concentration left out as unconfirmed; settings: BMDM pretreated with SB202190 or SP600125 for 16 h, LPS
Procedure: RNA was extracted using AllPrep DNA/RNA Mini kit, and cDNA was synthesized using SuperScript™ VILO™ cDNA Synthesis Kit. mRNA expression was determined by QPCR in a CFX96 thermal cycler (Biorad) as described (Zhong et al., 2016). Data are presented in arbitrary units and calculated by the 2^(−ΔΔCT) method. Primer sequences were obtained from the NIH qPrimerDepot (http://mouseprimerdepot.nci.nih.gov) and provided by Integrated DNA technologies.

**Q.** `Cc1nc(-c2nc(-c3ccc(OC(F)(F)F)cc3)no2)nn1Cc1cccc(N2CCC(S(C)(=O)=O)CC2)c1` [IACS-010759] was tested. Which ROS production (BMDM [1]; BMDM, IACS-010759 20 μM 16 hrs, MitoSOX) did it give?
**A.** enhanced

**Q.** What about the IL-6 secretion (BMDM [2]; BMDM, IACS-010759 20 μM 16 hrs) of the same molecule?
**A.** modest inhibition

**Q.** What about the TNF secretion (BMDM [2]; BMDM, IACS-010759 20 μM 16 hrs) of the same molecule?
**A.** no effect

**Q.** And the “IL-1β production and Casp1 and GSMDM cleavage” value (NLRP3 inflammasome; LPS-primed macrophages with NLRP3 activators, IACS-010759 20 μM 16 hrs)?
**A.** inhibited

**Q.** And the “response to nigericin compared with other activators” value (NLRP3 inflammasome; LPS-primed macrophages, IACS-010759 20 μM 16 hrs)?
**A.** not as strongly inhibited

**Q.** What about the mtDNA synthesis (mtDNA; LPS-primed BMDM, IACS-010759 16 hrs) of the same molecule?
**A.** inhibited

**Q.** Which results are given for `Oc1ccc(-c2nc(-c3ccncc3)c(-c3ccc(F)cc3)[nH]2)cc1` [SB202190]?
**A.** Il6 mRNA induction (BMDM [3]): blocked; IL-6 secretion (BMDM [2]; BMDM pretreated with SB202190 or SP600125 for 16 h, LPS): blocked

**Q.** What does the source list for `C[n+]1ccc(-c2cc[n+](CCCCCCCCCC[P+](c3ccccc3)(c3ccccc3)c3ccccc3)cc2)cc1.[I-].[I-].[I-]` [mitoParaquat]?
**A.** mtROS (BMDM [1]): increased; restoration of Casp1 activation and IL-1β secretion (NLRP3 inflammasome): neither one restored; restoration of cytoplasmic Ox-mtDNA or mtDNA synthesis (mtDNA): neither parameter was restored

**Q.** Which mtROS (BMDM [1]) does the source give for `COC1=C(OC)C(=O)c2ccccc2C1=O` [DMNQ, 2,3-dimethoxy-1,4-naphtoquinone] here?
**A.** increased

**Q.** What about the “restoration of Casp1 activation and IL-1β secretion” value (NLRP3 inflammasome) of the same molecule?
**A.** neither one restored

**Q.** And the “restoration of cytoplasmic Ox-mtDNA or mtDNA synthesis” value (mtDNA)?
**A.** neither parameter was restored
